Assay results from patent EP3318253B1, “COMPOSITIONS COMPRISING WNT INHIBITORS FOR TREATING CANCER” (Schmidt-Wolf, Ingo, priority 2010, dated 2012).
Read-outs that look alike come from different tables or passages of the source.

Key:
[1] = system: PBMC; test: Cell viability by DiOC6 staining, flow cytometry (normal control cells); type: cell-based, human; settings: for IC50: Homo sapiens, 72 h, PBMC from healthy individuals, three days; for effect on normal PBMC and PBL: result in words
Procedure: PBMCs were isolated from blood of healthy donors by Ficoll-Hypaque density gradient centrifugation. Blood from buffy coats was mixed 1:2 with PBS/1% BSA (both PAA, Cölbe, Germany) and used for a ficoll gradient (LymphoPrep, PAA, Cölbe, Germany). After the centrifugation at 800 g for 30 minutes, the leukocyte layer was removed and transferred to new tubes. Subsequently, these cells were washed 3 times with PBS/1%BSA and re-suspended in fresh medium, consisting of RPMI medium (PAA, Cölbe, Germany) with 10% fetal calf serum (Invitrogen, Karlsruhe, Germany), 2.5% hepes buffer solution (PAA, Cölbe, Germany), and 1% penicillin/streptomycin (PAA, Cölbe, Germany).
(§1) Experiments were performed as reported recently.

[2] = system: Raji; test: Cell viability by DiOC6 staining, flow cytometry; type: cell-based; settings: Homo sapiens, 72 h, 1x10^5 cells cultured three days, various concentrations
Procedure: as §1
(§2) PBL derived from healthy individuals were used as controls. […] ND, not done.

[3] = system: RPMI 8226; test: Cell viability by DiOC6 staining, flow cytometry; type: cell-based; settings: Homo sapiens, 72 h, 1x10^5 cells cultured three days, various concentrations
Procedure: as §1, §2

[4] = system: SU-DHL 4; test: Cell viability by DiOC6 staining, flow cytometry; type: cell-based; settings: Homo sapiens, 72 h; SU-DHL 4; 1x10^5 cells cultured three days, various concentrations
Procedure: as §1, §2

[5] = system: OCI-Ly8 LAM53; test: Cell viability by DiOC6 staining, flow cytometry; type: cell-based; settings: Homo sapiens, 72 h; OCI-Ly8 LAM53; 1x10^5 cells cultured three days, various concentrations
Procedure: as §1, §2

[6] = system: U266; test: Cell viability by DiOC6 staining, flow cytometry; type: cell-based; settings: Homo sapiens, U-266, 72 h, 1x10^5 cells cultured three days, various concentrations
Procedure: as §1, §2

[7] = system: lymphoma cell lines; test: Cell viability by DiOC6 staining in lymphoma cell lines; type: cell-based, human; settings: result in words
Procedure: as §1, §2

[8] = system: PBL; test: Cell viability by DiOC6 staining, flow cytometry (normal control cells); settings: for IC50: Homo sapiens, PBL, 72 h; for effect on normal PBL: result in words
Procedure: (§4) Peripheral blood mononuclear cells (PBMC) and PBL were isolated from blood samples of healthy volunteers by Ficoll density gradient centrifugation (Lymphoprep, Nycomed, Oslo, Norway).
(§5) 1x10^5 Cells were cultured in 3 ml Medium in 6-well plates. […] The apoptosis assay was performed with 3'3-dihexyloxacarbocyanine iodide (DiOC6) detecting mitochondrial membrane potential in viable cells, and propidium iodide (PI) which binds to DNA in necrotic cells, measured by a fluorescence-activated cell sorter (FACS).
(§6) For FACS analysis, 500µl staining solution containing 80 nM DiOC6 in FACS buffer, consisting of deficient RPMI-medium with 0.5% bovine serum albumin (BSA), was mixed with equal volumes of the cell sample in a glass tube and incubated at 37°C for 15 min. After a washing step with PBS/BSA 1% the cells were re-suspended in 500µl PBS/BSA 1%. After addition of 5µl PI-solution (100µg/ml) the cells were analyzed by FACS. Using this assay, viable cells reveal high fluorescence intensity for DiOC6 and a low expression for PI. In contrary, apoptotic cells show a low expression for DiOC6 and also a low expression for PI (2). Finally, necrotic cells show a low expression for DiOC6 and a high expression for PI.
(§7) PBMC and PBL derived from healthy individuals were used as normal controls. 1x10^5 cells were cultured with each compound using various concentrations for three days. Then cell viability was measured by DIOC6 staining by flow cytometry. Results represent data from two to four separate experiments each.
(§8) PBMC and PBL derived from healthy individuals were used as normal controls. 1x10^5 cells were cultured with each compound using various concentrations for three days. Then cell viability was measured by DIOC6 staining by flow cytometry. Results represent data from 2 to 4 separate experiments each.
(§9) 1x10^5 Cells were cultured in 3 ml Medium in 6-well plates. […] The apoptosis assay was performed with 3' 3-dihexyloxacarbocyanine iodide (DiOC6) detecting mitochondrial membrane potential in viable cells, and propidium iodide (PI) which binds to DNA in necrotic cells, measured by a fluorescence-activated cell sorter (FACS).
(§10) PBL derived from healthy individuals were used as controls. 1x10^5 cells were cultured with each compound using various concentrations for three days. Then cell viability was measured by DIOC6 staining by flow cytometry and IC 50 rates were determined. Results represent data from 2 to 4 separate experiments each.
(§11) PBMC and PBL derived from healthy individuals were used as controls. 1x10^5 cells were cultured with each compound using various concentrations for three days.

[9] = system: OPM-2 myeloma cells; test: Cell viability by DiOC6 staining, flow cytometry; type: cell-based, human; settings: for IC50: Homo sapiens, 72 h, OPM-2, 1x10^5 cells cultured three days, various concentrations
Procedure: as §1, §2

[10] = system: OPM-2, U266 and RPMI 8226 cells; test: Cell viability by DiOC6 staining in myeloma cell lines (mean IC50, combinations); type: cell-based, human; settings: for IC50: Homo sapiens, mean of the IC50 results in OPM-2, U266 and RPMI 8226 cells; for viability of myeloma cell lines in vitro: result in words
Procedure: A mean IC50 value in myeloma cells was determined using the mean of the IC50 results determined in OPM-2, U266 and RPMI 8226 cells.
(§3) • Figure 1. […] Data are shown as mean ± SD. • Figure 2. […] Data are shown as mean ± SD. • Figure 3. […] (A) Flow cytometric results. […] Finally, ECL reagent was utilized for detection. • Figure 4C. […] Finally, ECL reagent was utilized for detection. • Figure 5. Effect of EA on viability of myeloma primary cells. […] Results represent data from two separate experiments. Data are shown as mean. • Figure 6. […] (A) Tumor growth and (B) overall survival were measured. Six animals were assayed per group.
Experiments were performed as reported recently. […]

[11] = system: PBL
Procedure: as §4, §5, §6, §7, §8, §9, §10, §11

[12] = system: Daudi and Raji cells; test: Cell viability in combination experiments, lymphoma cells; type: cell-based, human; settings: single drug or combination; data not shown
[13] = system: MPC11 myeloma cells; settings: gavage, daily dosage 450 µg per animal; for overall survival time: compared to the control group; for animals in which solid tumor nodules formed: treatment group of 6
Procedure: All animal experiments were done at least in duplicate with groups of 6 BALB/c mice (Charles River, Sulzfeld, Germany). 5x10^5 MCP11 murine myeloma cells were injected per mouse subcutaneously into Balb/c mice. […] Overall survival and tumor growth were measured. Tumor volume was calculated as follows: volume = length x width^2 x 0,52. Animals were killed when tumor volume reached 2000 mm^3.
• Figure 1. […] 1x10^5 cells were cultured with different compounds for three days. The concentration of thalidomide was U266 160µM for U266, RPMI 20µM for RPMI, and OPM 40µM for OPM cells. Then cell viability was measured by DIOC6 staining in flow cytometry. Results represent data from three, two and five separate experiments, respectively. Separate U266 n=3, RPMI n=2, OPM n=5 experiments. Data are shown as mean ± SD. • Figure 2. […] 1x10^5 OPM cells were cultured with the different compounds for three days. The concentration of lenalidomide was 12µM for OPM and 80µM for RPMI cells. Then cell viability was measured by DIOC6 staining in flow cytometry. Results represent data from eight and five OPM n=8, RPMI n=5 separate experiments, respectively. Data are shown as mean ± SD. • Figure 3. […] (A) Flow cytometric results. […] Western Blot analysis for the detection of β-catenin in myeloma cell lines under normal conditions. The myeloma cell lines RPMI 8226, KMS-18 and U266 were analyzed according to their β-catenin expression. • Figure 4B. […] As primary antibodies purified mouse anti-β-catenin and β-actin were used at a dilution of 1:1000 and as secondary antibody served goat anti-mouse IgG-HRP at a dilution of 1:5000. Finally, ECL reagent was utilized for detection. • Figure 4C. […] As primary antibodies Purified mouse anti-β-catenin and β-actin were used at a dilution of 1:1000 and as secondary antibody served goat anti-mouse IgG-HRP at a dilution of 1:5000. Finally, ECL reagent was utilized for detection. • Figure 5. […] Results represent data from two separate experiments. Data are shown as mean. • Figure 6. […] BALB/c mice were injected with 5x10^5 MPC11 myeloma cells subcutaneously. (A) Tumor growth and (B) overall survival were measured. Six animals were assayed per group.
All animal experiments were done at least in duplicate with groups of 6 BALB/c mice (Charles River, Sulzfeld, Germany). 5x10^5 MCP11 murine myeloma cells were injected per mouse subcutaneously into Balb/c mice. Mice were treated orally with 450µg/day CIC and 750 µg lenalidomide/day, respectively. Overall survival and tumor growth were measured. Tumor volume was calculated as follows: volume = length x width^2 x 0,52. Animals were killed when tumor volume reached 2000 mm^3.
• Figure 7. […] 1x10^5 cells were cultured with different compounds for three days. The concentration of thalidomide was U266 160µM for U266, RPMI 20µM for RPMI, and OPM 40µM for OPM cells. Then cell viability was measured by DIOC6 staining in flow cytometry. Results represent data from three, two and five separate experiments, respectively. Separate U266 n=3, RPMI n=2, OPM n=5 experiments. Data are shown as mean ± SD. • Figure 8. […] 1x10^5 OPM cells were cultured with the different compounds for three days. The concentration of lenalidomide was 12µM for OPM and 80µM for RPMI cells. Then cell viability was measured by DIOC6 staining in flow cytometry. Results represent data from eight and five OPM n=8, RPMI n=5 separate experiments, respectively. Data are shown as mean ± SD. • Figure 9. […] (A) Flow cytometric results. (B) We analyzed the effect of CIC on the Wnt/beta catenin pathway by Western blot. • Figure 10A. Western Blot analysis for the detection of β-catenin in myeloma cell lines under normal conditions. The myeloma cell lines RPMI 8226, KMS-18 and U266 were analyzed according to their β-catenin expression. • Figure 10B.

[14] = system: primary myeloma cells derived from bone marrow from patients with multiple myeloma; test: Viability of myeloma primary cells from bone marrow; type: cell-based, human; settings: incubated three days; preliminary data
Procedure: Bone marrow samples from patients with myeloma were taken after informed consent, single cell suspensions generated and cells ficolled. Cells were incubated with or without EA for three days and measured for viability.
as §3
Bone marrow samples from patients with myeloma were taken after informed consent, single cell suspensions generated and cells ficolled. Cells were incubated with or without CIC for three days and measured for viability.
Bone marrow samples from patients with myeloma were taken after informed consent, single cell suspensions generated and cells ficolled. Cells were incubated with or without GF for three days and measured for viability.

[15] = system: MPC 11; test: Cell viability by DiOC6 staining, flow cytometry; type: cell-based; settings: Mus musculus, 72 h; MPC 11 (murine); three days
Procedure: Then cell viability was measured by DIOC6 staining in flow cytometry. […] Then cell viability was measured by DIOC6 staining in flow cytometry. Results represent data from two separate experiments. […] Six animals were used in each group. […] Six animals were used in each group.

[16] = system: KMS18; test: Cell viability by DiOC6 staining, flow cytometry; type: cell-based; settings: Homo sapiens, 72 h, three days
Description: as §2

Structure (SMILES) | IC50 [1] | effect on normal PBMC and PBL [1] | IC50 [2] | IC50 [3] | IC50 [4] | IC50 [5] | IC50 [6] | viability of lymphoma cell lines in vitro [7] | IC50 [8] | effect on normal PBL [8] | IC50 [9] | IC50 [10] | overall survival time [13] | animals in which solid tumor nodules formed [13] | growth of primary myeloma cells [14] | IC50 [15] | viability of myeloma cell lines in vitro [10] | other results
Nc1cccc2c1CN(C1CCC(=O)NC1=O)C2=O (racemic) [lenalidomide, (RS)-3-(4-amino-1-oxo-3H-isoindol-2-yl)piperidine-2,6-dione] | > 400 µM | marginal | > 1000 µM | 2 µM | > 1000 µM | > 1000 µM | 34 µM | no effect | > 200 µM | marginal | 13 µM | 16.3 µM |  |  |  |  |  | viability of OPM-2 and RPMI-8226 myeloma cells ([10]; lenalidomide 12µM for OPM, 80µM for RPMI, three days): significant decrease in viability
O=C1CCC(N2C(=O)c3ccccc3C2=O)C(=O)N1 (racemic) [thalidomide, (RS)-2-(2,6-dioxopiperidin-3-yl)-1H-isoindole-1,3(2H)-dione] | > 400 µM | no effect | > 400 µM | > 400 µM | > 400 µM | > 400 µM | 300 µM | no effect | > 400 µM |  | 53 µM | > 251 µM |  |  |  |  |  | effect on normal PBL [11]: no effect; viability of OPM-2, U-266 and RPMI-8226 myeloma cells ([10]; thalidomide 160µM for U266, 20µM for RPMI, 40µM for OPM, three days): significant decrease in viability
CC(C)C[C@H](NC(=O)[C@H](Cc1ccccc1)NC(=O)c1cnccn1)B(O)O [bortezomib] |  |  |  |  |  |  |  |  |  |  |  |  |  |  |  |  |  | viability of OPM-2 myeloma cells ([9]; bortezomib alone or in combination, data not shown): significant decrease in viability
COc1cccc2c1C(=O)c1c(O)c3c(c(O)c1C2=O)C[C@@](O)(C(=O)CO)C[C@@H]3O[C@H]1C[C@H](N)[C@H](O)[C@H](C)O1 [doxorubicin] |  |  |  |  |  |  |  |  |  |  |  |  |  |  |  |  |  | viability of Daudi and Raji cells [12]: significant decrease in viability
COC1=CC(=O)C[C@@H](C)[C@]12Oc1c(Cl)c(OC)cc(OC)c1C2=O [griseofulvin, (2S,6'R)-7-chloro-2',4,6-trimethoxy-6'-methyl-3H,4'H-spiro [1-benzofuran-2,1'-cyclohex[2]ene]-3,4'-dione] | 180 µM |  | 33 µM | 26 µM | 22 µM | 30 µM | 18 µM | significantly (p<0.05) decreased | 80 µM |  |  | 22 µM | significantly (p<0.05) longer | 5 of 6 | inhibits the growth | 41 µM | significantly decreased the viability | 
Cc1cc(CC(C)CC(C)(C)C)n(O)c(=O)c1 (stereo not shown) [piroctone olamine] |  |  | 0.6 µM | 0.6 µM | 0.7 µM | 0.6 µM | 0.6 µM | significantly (p<0.05) decreased | 18 µM | marginal | 0.7 µM | 0.6 µM | significantly (p<0.05) longer | 5 of 6 | inhibits the growth | 0.8 µM | significantly decreased the viability | IC50 [16]: 0.6 µM
